Results taken from patent US12551434B2, “Zwitterionic polymer particle compositions and related methods” (WAYNE STATE UNIVERSITY, priority 2020, dated 2026).
Like-named read-outs stand apart in the source and are kept apart here.

Columns and labels:
[1] = tested on: Caco-2 cells (PAT1 overexpression); test: Cell uptake of micelle/polystyrene nanoparticles (confocal, flow cytometry); type: cell-based, human
Experimental: Cell uptake of polystyrene nanoparticles for Caco-2 and 3T3 cells. Caco-2 human colon epithelial cells and NIH 3T3 mouse embryonic fibroblast cells were used as received from the American Type Culture Collection without further authentication, and were cultured in Dulbecco's Modified Eagle's Medium (DMEM) and Eagle's Minimum Essential Medium (EMEM) at 37° C. in a 5% CO2 environment respectively. […] Cells were seeded in a 12-well plate at a density of 1×10^5 cells per well overnight, washed twice with pre-wared PBS, and incubated with DSPE-PCB/polystyrene nanoparticles in culture medium at 37° C. for 2 h. […] Cellular uptake of DSPE-PCB/polystyrene nanoparticles in different groups was examined by an Zeiss LSM 780 confocal laser scanning microscope. The Z-stack method was used for three-dimensional visualization, where the section thickness was 2.5 μm, the step interval was 2 m, and the total z-stack length was 44 μm (23 slices). Fluorescent signal was quantified by using the image J software. Cellular uptake was also quantitively measured with flow cytometry (BD FACSAria II flow cytometer) and analyzed with FlowJo X software.

[2] = tested on: streptozotocin (STZ)-induced C57BL/6 diabetic mice; test: Blood glucose lowering on STZ-induced diabetic mice (ileum injection or oral gavage); type: in vivo; details: ileum injection, 20 IU/Kg, compared with saline baseline
Experimental: Animals and diabetes induction. All animal experiments were performed according to the National Institute of Health (NIH) guidelines for animal research under a protocol approved by the Institutional Animal Care and Use Committee (IACUC) at Wayne State University. To establish streptozotocin (STZ)-induced diabetic mice model, healthy mice (C57BL/6J, male, 6-8 weeks of age, Jackson Lab) received a daily intraperitoneal injection of 5 mg/ml STZ at 50 mg/kg body weight for 5 consecutive days. 17 days after the first injection, body weight and blood glucose were measured to confirm the diabetic status. Diabetic mice with blood glucose above 300 mg/dL were selected for further in vivo test. To establish STZ-rat model, healthy rats (Sprague Dawley rat, male, ˜180 g, Charles River) received a one-time intraperitoneal injection of 65 mg/kg STZ. 10 days after injection, diabetic rats with blood glucose above 300 mg/dL were selected for further in vivo test.
Ileum injection surgery. Mice received buprenorphine SR subcutaneously and surgical anesthesia was managed by isoflurane inhalation. The surgical site (abdomen) was shaved and prepped with three alternating scrubs of betadine and alcohol. On prepped animal, a single incision (1.5-2 cm) was made through abdomen skin. About 0.5-1 cm ileum of intestine was pulled-out from the enterocoelia. […]

[3] = tested on: intestinal tight junctions; test: Lactulose-mannitol intestinal permeability test; type: in vivo; details: healthy and diabetic mice, 1 h after ileum co-injection, vs control without micelles
Experimental: The lactulose-mannitol intestinal permeability test. Healthy and diabetic mice remained fasted for 8 h and were restricted from water for 3 h before the experiment. Then mice received 500 μL water through oral gavage. 1 h later, the lactulose, mannitol, and free micelles were co-administered via ileum injection at the dose of 40/8/5.2 mg/ml (50 μL) and the wound is closed with wound clips. 1 h post ileum injection, the urine was collected, and the ileum tissue surrounding the injection site was collected for TEM imaging. The concentrations of lactulose and mannitol were measured using LC-MS-MS, with a mobile phase of 10 mM ammonium formate in water and acetonitrile (90:10), and an Agilent advanced bio glucan mapping column (2.1×100 mm×2.7 μm) (precursor and product: mannitol 180.7→89; lactulose 341.2→160.8).

Caco-2 monolayers = test: Transepithelial electrical resistance (TEER) study
Experimental: Transepithelial electrical resistance (TEER) study. Caco-2 cells were suspended in EMEM supplemented with 20% FBS, and seeded at a density of 2×10^5 cells per well on Corning® Transwell polyester membrane cell culture inserts and incubated for 96 h. The TEER was monitored to confirm proper barrier formation and only monolayers with initial TEER values of at least 300Ω×cm^2 were used for TEER or molecular permeability experiments. Prior to the study, the medium in the apical and basolateral chambers was replaced with prewarmed EMEM. After equilibration at 37° C. for 30 min, the apical solution was replaced with Sodium decanoate, polysorbate 80 or DSPE-PCB (0.2% w/v) in EMEM. After incubation for 4 h, the TEER value of each insert was measured with EVOM2
Epithelial volt/ohmmeter to explore the integrity of the tight junction.

healthy mice = test: Long-term safety of repeated consecutive dosing; details: for serum endotoxin and pro-inflammatory cytokines (TNF-α, IFN-γ, IL-6): healthy mice, oral gavage twice daily 14 days, day 0 and 14, before and 1 h after dose
Experimental: Long-term safety of repeated consecutive dosing. […] At day 14, the lactulose/mannitol experiment was conducted to examine potential tight junction opening through the lactulose-mannitol intestinal permeability test. In addition, the ileum tissue was collected and fixed in 10% zinc fixative (BD Pharmingen™), dehydrated in ethanol, and embedded in paraffin. Five-μm cross-sections of intestine tissue were deparaffinized, rehydrated, and stained with Hematoxylin and Eosin. Histological morphology was examined using an EVOS XL Core Cell Imaging microscope. In addition, healthy mice received the same oral administered with DSPE-PCB micelle, saline, Polysorbate 80, or sodium decanoate twice daily for 14 consecutive days (the same dose as above). On day 0 and 14, before and 1 h after the oral administration, blood serum was collected and the endotoxin and pro-inflammatory cytokines (IFN-γ, IL-1β, ILL-4, IL-6, IL-12, TNF-α) were measured with Pierce LAL Chromogenic Endotoxin Quantitation Kit and the mouse magnetic Luminex® assays (Lot No: L131929).

[4] = tested on: intestine epithelial tight junctions; test: TEM imaging of tight junctions after ileum injection; details: 1 h post ileum injection
Experimental: (§1) 1 h post ileum injection of the formulations, mice were euthanized and small parts of ileum (5×5 mm) near to the injection site were collected and washed with PBS. The samples were continuously fixed in 2.5% glutaraldehyde+2.5% paraformaldehyde in 0.1M PBS buffer and 4% osmium tetroxide solution and transferred into Beem® embed capsule with micro-embed resin added to embed samples. The obtained blocks were further sectioned with ultra-microtomy to obtain sections with thickness of ˜70 nm. These sections were retrieved via copper grid and stained with 1% lead citrate and 4% uranyl acetate separately, and then visualized under a JEM-100CX II electron microscope operated at 100 kV.

Caco-2 cells [5] = test: In vitro cytotoxicity (MTT) and live/dead assay; type: cell-based, human; details: 0.01-1 mg/ml, 24 h
Experimental: In vitro cytotoxicity and live/dead assay. In vitro cytotoxicity was evaluated using MTT assay with Caco-2 cells. Caco-2 cells were seeded on 96-well plates at a density of 2×10^4 cells per well in Eagle's Minimum Essential Medium (EMEM) with 20% FBS and cultured in 5% CO2 atmosphere at 37° C. for 24 h. Then the cells were washed twice with HBSS and incubated with 100 μl of DSPE-PCB micelle or Polysorbate 80 solutions in EMEM with concentrations of 0.01, 0.1, and 1.0 mg/ml, respectively. After 24 h of incubation at 37° C., the DSPE-PCB micelle and Polysorbate 80 solution were replaced with 100 μL of MTT solution (0.5 mg/ml in HBSS), and the cells were incubated for an additional 4 h at 37° C. Subsequently, the supernatant was carefully removed and 150 μL of dimethyl sulfoxide (DMSO) was added to each well. The absorbance of the resultant solutions was measured at 570 nm using a microplate reader (Bio-Rad, USA). Untreated cells were used as negative control for 100% cell viability. Cell viability was expressed as percentage of absorbance relative to the control. Live/dead assay was conducted by staining the cells with 100 μL of PBS buffer containing 2 μM Calcein and 4 μM ethidiumhomodimer-1 (Live/Dead viability/cytotoxicity kit, Invitrogen, CA, USA). The cells were incubated at room temperature for 30 minutes and observed by the EVOS FL fluorescence microscope (AMG).

[6] = tested on: intestine epithelial tight junctions; details: mouse, in vivo
Experimental: as §1

Caco-2 cells [7] = tested on: Caco-2 cells
Caco-2 cells [8] = test: LDH leakage assay; details: % of untreated cell negative control; 1% with sonication, complete lysis, positive control
[9] = type: in vitro ADME, porcine
Experimental: Tracking nanoparticle diffusion in mucus. Nanoparticle diffusion behavior in mucus was studied by modifying methods as described in Lai, S. K. et al. P Natl Acad Sci USA 104, 1482-1487 (2007) and Olmsted, S. S. et al. Biophys J 81, 1930-1937 (2001). Mucus was reconstituted by dissolving porcine stomach mucin in phosphate buffered saline (PBS) at 30 mg/ml. Nanogels were added into 100 μl mucus to reach a final concentration of 3% vol/vol (final particle concentration, 8.25×10^−7 wt/vol) and incubated for 1 h on a Nunc™ glass bottom dish (0.17 mm thickness for the inside bottom glass) before observation. Movies were captured with 64×oil-immersion objective in a spinning disc confocal microscope (Yokogawa CSU-X1M 5000 microlens, Zeiss LSM 800). For each nanogel sample, trajectories of n=50 particles were analyzed, and three samples were examined for each type of nanogel. MSD was calculated with the equation of MSD=<|r(t)-r(0)|^2> at a temporal resolution of 200 ms for 20 s.

N[C@@H](Cc1c[nH]c2ccccc12)C(=O)O [L-tryptophan]
inhibition of Caco-2 uptake of DSPE-PCB micelle particles by PAT1 substrates ([1]; pretreatment 5 mg/ml, 1 h): significantly inhibited

Native insulin: native insulin not encapsulated by any carrier
glucose-lowering effect [2]: hardly achieved any glucose-lowering effect

CCCCCCCCCC(=O)[O-].[Na+] [sodium decanoate]
excretion ratio of lactulose to mannitol (L/M) in urine [3]: drastically higher L/M ratio values | TEER / permeability of Caco-2 cell layers (Caco-2 monolayers; 0.2% w/v, 4 hours): drastically decreased TEER values | serum endotoxin and pro-inflammatory cytokines (TNF-α, IFN-γ, IL-6) (healthy mice): observable increase | tight junction morphology (TEM) [4]: even more severe tight junction opening

Polysorbate 80
cellular uptake ([1]; Caco-2 cells compared with 3T3 cells, 2 h, 37 C): no observable polysorbate 80 uptake | excretion ratio of lactulose to mannitol (L/M) in urine [3]: drastically higher L/M ratio values | TEER / permeability of Caco-2 cell layers (Caco-2 monolayers; Caco-2): drastically decreased TEER values | cytotoxicity (cell viability, MTT, live/dead staining) (Caco-2 cells [5]): no significant cytotoxicity | serum endotoxin and pro-inflammatory cytokines (TNF-α, IFN-γ, IL-6) (healthy mice): observable increase | tight junction morphology (TEM) [6]: severe tight junction opening | lactate dehydrogenase (LDH) release (Caco-2 cells [7]): no significant lactate dehydrogenase (LDH) release

Triton X-100
LDH leakage level (Caco-2 cells [8]): 240%

DSPE lipid conjugated with poly(N-methacryloyloxyethyl-N,N-dimethylammonium-α-N-methylcarboxybetaine) [DSPE-PCB micelles]
MSD relative to Polysorbate 80 micelles [9]: ~12 times | TEER / permeability of Caco-2 cell layers (Caco-2 monolayers; Caco-2): did not increase the permeability of Caco-2 cell layers | small intestine histology (H&E) on day 14 (healthy mice; mouse, in vivo, po): no significant structural damage | tight junction opening, urine lactulose/mannitol test at day 14 (healthy mice; mouse, in vivo, po): no significant tight junction opening | tight junction morphology (TEM) [6]: intact tight junctions
